# Laboratory results as given in patent publication US5654179A, “Nucleic acid preparation methods” (HRI Research, Inc., priority 1994, dated 1997).
# Where a name gives a salt, the structure may show the parent alone. Read-outs that look alike come from different tables or passages of the source.
# Experiments:
# Taq polymerase [1] = details: cited from earlier work; for inhibitory concentration in PCR: final concentration
# Taq polymerase [2] = format: biochemical; set-up: key to Effect of cofactors on serum albumin: BSA / Effect of cofactors on transferrin: Bovine Transferrin: The presence of product bands ("+") indicated that the cofactor was, in conjunction with transferrin or serum albumin, able to overcome inhibition
# Experimental: (§1) Generally, PCR was carried out using 175-200 μM dNTPS (deoxyribonucleoside 5'-triphosphates) and 0.5 to 1.0 μM primers. Five units/100 μl of Taq polymerase were used. PCR reactions were overlaid with 30-100 μl light mineral oil. A typical PCR cycle for HIV amplification using a Perkin-Elmer Cetus DNA Thermal Cycler (Part No. N8010150) was: denaturation at 95° C. for 30 seconds; annealing at 55° C. for 30 seconds; and extension at 72° C. for 1 minute. PCR cycles were normally carried out in this manner for 35 cycles followed by 7 minutes at 72° C.
# In some instances below, amplification of human histocompatibility (HLA) Class II genes was performed using primer pair GH26 (SEQ ID NO:2) and GH27 (SEQ ID NO:3) and human placental DNA to produce a 242-mer product (SEQ ID NO: 4). These primers and other primers are described in PCR Protocols: A Guide To Methods and Applications, Innis, M. A. et al. eds., pp. 261-271 (1990)).
# Whole blood was prepared according to Mode III (see FIG. 1). Whole blood samples (100 μl) were lysed with protease K (0.5 mg/ml, 55° C. for 1 hour). The enzyme was inactivated by heating (95°-100°C., 10 minutes). Four sets of reactions were then set up involving the addition of interfering reagent to the protease lysate: 1) transferrin with 10 mM sodium bicarbonate; 2) transferrin with 20 mM sodium bicarbonate; 3) serum albumin with 10 mM sodium bicarbonate; and 4) serum albumin with no cofactor. These reaction were performed at room temperature for thirty minutes using a concentration range for transferrin and serum albumin (10, 25, 50, 75, 100, 150, 200 and 250 μg per 20 μl PCR rxn). PCR was then set up using the primer pair GH26/GH27 to produce a 242-mer product (see above). Two standard control reactions were run in separate tubes: i) a no nucleic acid target control; and 2) a positive control (human placental DNA). Four additional control lanes were run: 1) no inhibitor treatment (two lanes); 2) 10 mM sodium bicarbonate only (one lane); and 3) 50 μg transferrin only (one lane); and 4) transferrin with 10 mM sodium bicarbonate (two lanes). PCR was carried out for 35 cycles. The PCR products were thereafter electrophoresed (agarose) and visualized with ethidium bromide staining. The two above-named control reactions were electrophoresed in lanes 9 and 10 of FIG. 16A, respectively, as well as lanes 17 and 18 of FIG. 16B, respectively. In FIG. 16C, the positive control is in lane 1 and the negative control is in lane 2.
# Whole blood was prepared according to Mode III (see FIG. 1). Whole blood samples (20 μl) were lysed with protease K (0.5 mg/ml, 55° C. for 1 hour). The enzyme was inactivated by heating (95°-100° C., 10 minutes). Reactions were then set up involving the addition of bovine transferrin or serum albumin with various cofactors, including bicarbonate ion, azide ion, thiocyanate ion, cyanate ion, oxalate ion, malonate ion, glycinate ion, and thioglycolate ion. These reaction were performed at room temperature for thirty minutes. PCR was then set up using the using primer pair GH26/GH27 to produce a 242-mer product (see above). PCR was carried out for 35 cycles. The PCR products were thereafter electrophoresed (agarose) and visualized with ethidium bromide staining.
# [3] = system: DNA ligase from mouse erythroleukemia (MEL) cells; details: incubation with hemoglobin; cited from earlier work
# Taq polymerase [4] = experiment: PCR inhibition, SK38/39 system, 115-mer product on ethidium bromide gel or autoradiograph; format: biochemical
# Experimental: as §1
# In other cases, amplification of HIV sequences was performed using primer pair SK-38 (SEQ ID NO:5) and SK-39 (SEQ ID NO:6) and 115-mer (SEQ ID NO:7) as target to produce a 115-mer product.
# Where agarose gel electrophoresis was used, the PCR products were fractionated by electrophoresis through a 3% Nusieve/1% agarose gel in TBE buffer. Electrophoresis was typically carried out in a constant voltage of 8-10 V/cm. Following agarose gel electrophoresis, individual bands were, in most cases, visualized by ethidium bromide staining. This involved staining the agarose gel with 1 μg/ml ethidium bromide in TBE for 30 minutes followed by destaining the agarose gel with TBE for 30 minutes.
# The chemical reaction was performed as follows. Two aliquots (30 mg/aliquot) of sodium borohydride (NaBH4) were added at ten minute intervals to 1 ml of 200 μM hematin (Sigma) in 1M Tris (pH 8.0) under argon in the dark. The pH was adjusted to 6.0 between additions. At the end of the reaction (20 minutes) the pH was adjusted to 1.0 and then neutralized to pH 7.0. Six aliquots (5 μl) of the product of the reaction corresponding to different amounts of reacted hematin (37.5 μM, 7.5 μM, 1.5 μM, 0.3 μM, 0.06 μM, 0.012 μM) were added to standard (20 μl) PCR reactions in different tubes using the SK38/39 system (see above). Three standard control reactions were run in separate tubes: i) a no nucleic acid target control; ii) a no primer control; and iii) a positive control (no hematin). In addition, unreacted hematin was added to four different tubes in different amounts (50 μM, 5 μM, 0.5 μM, and 0.05 μM). PCR was carried out for 30 cycles. The PCR products were thereafter electrophoresed (agarose) and visualized with ethidium bromide staining (FIG. 2A, lanes 1-13). The three above-named control reactions were electrophoresed in lanes 1, 2 and 3, respectively. […] The unreacted hematin tubes (lanes 4-7) show no product until hematin is present at a very low concentration (0.05 μM, lane 7), at which point product is evident. […] Indeed, product is evident where 1.5 μM reacted hematin or less was present. […] A score (i.e., % maximum intensity of a positive control) was given to each band. An OD unit of 1.0 corresponds to 100% of maximum intensity. After examination of a plot of the estimated OD units to the concentration of hematin (expressed in the log scale) in these PCR reactions, it is clear that approximately a thirty-fold concentration difference was achieved (reacted to unreacted).
# The photochemical reaction was performed as follows. Stock biliverdin (Sigma, 5 mM) was diluted in solution (50 mM Tris pH 7.8) to a final concentration of 200 μM. Two aliquots (300 μl) were then made. One aliquot was left unreacted. The other aliquot was exposed to ultraviolet radiation from an HRI-100 for 16 hours using the industry standard, F8T5BL hot cathode dual bipin lamps. Thereafter, both the unirradiated and irradiated materials were added (5 μl) to standard (20 μl) PCR reactions in different tubes using the SK38/39 system (see above) and 10^9 copies of 115-mer target. Three standard control reactions were run in separate tubes: i) a no nucleic acid target control; ii) a positive control (no biliverdin); and iii) a no Taq control. PCR was carried out for thirty (30) cycles. The PCR products were thereafter electrophoresed (agarose) and visualized with ethidium bromide staining (FIG. 3A, lanes 1-5). […]
# [5] = Spectroscopic analysis of photochemical treatment (300-700 nm scan); format: physicochemical
# Experimental: In this case 0.5 ml of untreated biliverdin in solution (diluted in 50 mM Tris pH 7.8) to a final concentration corresponding to Apeak =0.7) was scanned using a Beckman Spectrophotometer Model DU-50 between 300 and 700 nm. Photochemically treated (1.5 hours and 16 hours of irradiation) biliverdin was similarly diluted and scanned. […] This corresponds to lane 5 in FIG. 3A where no PCR inhibition was observed.
# In this case 0.5 ml of untreated bilirubin in solution (diluted in 50 mM Tris, pH 7.8 to a final concentration corresponding to Apeak =0.8) was scanned using a Beckman Spectrophotometer Model DU-50 between 300 and 700 nm. Photochemically treated (20 minutes, 60 minutes and 2.5 hours of irradiation) bilirubin was similarly diluted and scanned. […] With just 20 minutes of irradiation, this peak is reduced; with just 60 minutes of irradiation, this peak is weak; with 2.5 hours, it is eliminated. The 2.5 hour treatment corresponds to lane 8 in FIG. 4A where no PCR inhibition was observed.
# [6] = hematin or protoporphyrin only, 500 μM stock
compound,measurement,setting,value
[Fe+3] [Fe^+++],inhibition of PCR / Taq polymerase,Taq polymerase [1],inhibit PCR
"O=C(O)O [cofactor, sodium bicarbonate]",PCR product,Taq polymerase [2],No product is visible
hemoglobin,inhibition of DNA ligase from MEL cells,[3],not inhibitory
C=CC1=C(C)c2cc3[nH]c(cc4nc(cc5[nH]c(cc1n2)c(C)c5CCC(=O)O)C(CCC(=O)O)=C4C)c(C)c3C=C [protoporphyrin],inhibitory concentration in PCR,Taq polymerase [1],20 µM
same,PCR inhibition,Taq polymerase [4]; [6],completely inhibited
C=CC1=C(C)/C(=C/C2=NC(=C\c3[nH]c(/C=C4\NC(=O)C(C)=C4C=C)c(C)c3CCC(=O)O)/C(CCC(=O)O)=C2C)NC1=O [biliverdin],absorbance peak at approximately 450 nm after irradiation,[5]; 1.5 hours of irradiation,very weak
same,absorbance peak at approximately 450 nm after irradiation,[5]; 16 hours of irradiation,eliminated completely
same,PCR product,Taq polymerase [4]; biliverdin photochemically treated 16 hrs,product is visible
same,PCR inhibition,"Taq polymerase [4]; biliverdin unirradiated, 5 μl of 200 μM in 20 μl PCR",completely inhibited
"O=C(O)O [Sodium Bicarbonate (NaHCO3), Sodium Bicarbonate]",Effect of cofactors on serum albumin: BSA,Taq polymerase [2],+
same,Effect of cofactors on transferrin: Bovine Transferrin,Taq polymerase [2],+
"N#CS [Sodium Thiocyanate (NaSCN), Sodium Thiocyanate]",Effect of cofactors on serum albumin: BSA,Taq polymerase [2],+
same,Effect of cofactors on transferrin: Bovine Transferrin,Taq polymerase [2],+
C=CC1=C(C)c2cc3[n-]c(cc4[n-]c(cc5nc(cc1n2)C(C)=C5C=C)c(C)c4CCC(=O)O)c(CCC(=O)O)c3C.[Fe+2] [heme],inhibitory concentration in PCR,Taq polymerase [1],0.8 µM
"O=C(O)CC(=O)O [Sodium Malonate (NaO2 CCH2 CO2 Na), Sodium Malonate]",Effect of cofactors on serum albumin: BSA,Taq polymerase [2],+
C=CC1=C(C)/C(=C/c2[nH]c(Cc3[nH]c(/C=C4\NC(=O)C(C)=C4C=C)c(C)c3CCC(=O)O)c(CCC(=O)O)c2C)NC1=O [bilirubin],absorbance peak at approximately 450 nm after irradiation,[5]; 20 minutes of irradiation,reduced
same,absorbance peak at approximately 450 nm after irradiation,[5]; 60 minutes of irradiation,weak
same,absorbance peak at approximately 450 nm after irradiation,[5]; 2.5 hours of irradiation,eliminated
same,PCR product,"Taq polymerase [4]; 400 μM bilirubin, 2.5 hrs irradiation",product is visible
same,PCR product,"Taq polymerase [4]; 800 μM bilirubin, 3.5 hrs irradiation",product is visible
same,PCR product,"Taq polymerase [4]; 2 mM bilirubin, 4 hrs irradiation",Product is not visible
same,PCR inhibition,"Taq polymerase [4]; unreacted bilirubin, 400 μM, 800 μM and 2 mM",completely inhibited
"[N-]=[N+]=[N-] [Sodium Azide (NaN3), Sodium Azide]",Effect of cofactors on serum albumin: BSA,Taq polymerase [2]; cofactor with BSA,+
[Fe+2] [Fe++],inhibition of PCR / Taq polymerase,Taq polymerase [1],inhibit PCR
"NCC(=O)O [Sodium Glycinate (NaO2 CH2 NH2), Sodium Glycinate]",Effect of cofactors on serum albumin: BSA,Taq polymerase [2],+
same,Effect of cofactors on transferrin: Bovine Transferrin,Taq polymerase [2],+
"O=C(O)CS [Sodium Thioglycolate (NaO2 CCH2 SH), Sodium Thioglycolate]",Effect of cofactors on serum albumin: BSA,Taq polymerase [2],+
same,Effect of cofactors on transferrin: Bovine Transferrin,Taq polymerase [2],+
"N#CO [Sodium Cyanate (NaOCN), Sodium Cyanate]",Effect of cofactors on serum albumin: BSA,Taq polymerase [2],+
same,Effect of cofactors on transferrin: Bovine Transferrin,Taq polymerase [2],+
C=CC1=C(C)c2cc3[n-]c(cc4[n-]c(cc5nc(cc1n2)C(C)=C5C=C)c(C)c4CCC(=O)O)c(CCC(=O)O)c3C.O.[Fe+2] [hematin],inhibition of PCR / Taq polymerase,Taq polymerase [1],potent inhibitors of Taq polymerase
same,inhibitory concentration in PCR,Taq polymerase [1],≥ 0.8 µM
same,PCR inhibition,Taq polymerase [4]; [6],completely inhibited
same,concentration difference (reacted to unreacted) in PCR inhibition,"Taq polymerase [4]; sodium borohydride reduction, visual band intensity",thirty
same,concentration at which PCR product is evident,"Taq polymerase [4]; unreacted hematin, no product at 50, 5, 0.5 μM",0.05 µM
"O=C(O)C(=O)O [Sodium Oxalate (NaO2 CCO2 Na), Sodium Oxalate]",Effect of cofactors on serum albumin: BSA,Taq polymerase [2],+
serum albumin,PCR product,Taq polymerase [2]; serum albumin 25 μg with cofactor (lane 9),weak product band
same,PCR product,Taq polymerase [2]; serum albumin 10 to 250 μg without cofactor,No product is visible
same,PCR product,Taq polymerase [2]; serum albumin higher concentrations with cofactor (lanes 10-16),strong product bands
